The test system of assay [1] is CK-1 male mice. Kind of assay: climbing mice assay (antagonism of apomorphine-induced climbing). The assay is classed as in vivo. The following applies: Mus musculus, ip, read-out: CLIMBING MOUSE ASSAY (ED₅₀ mg/kg, ip). As for the experimental part:
The compounds of the present invention are useful for treating psychoses by virtue of their ability to elicit an antipsychotic response in animals. Antipsychotic activity is determined in the climbing mice assay by a method similar to those described by P. Protais, et al., Psychopharmacol., 50:1(1976) and B. Costall, Eur. J. Pharmacol., 50:39 (1978).
Subject CK-1 male mice (23-27 grams) are grouped-housed under standard laboratory conditions. The mice are individually placed in wire mesh stick cages (4" X 10") and are allowed one hour for adaption and exploration of the new environment. Then apomorphine is injected subcutaneously at 1.5 mg/kg, a dose causing climbing in all subjects for 30 minutes. Compounds to be tested for antipsychotic activity are injected intraperitoneally or given oral doses at various time intervals, e.g. 30 minutes, 60 minutes, etc. prior to the apomorphine challenge at a screening dose of 10-60 mg/kg.
For evaluation of climbing, 3 readings are taken at 10, 20 and 30 minutes after apomorphine administration according to the following scale:
Mice consistently climbing before the injection of apomorphine are discarded.
With fully-developed apomorphine climbing, the animals are hanging on to the cage walls, rather motionless, over longer periods of time. By contrast, climbs due to mere motor stimulation usually only last a few seconds.
The climbing scores are individually totaled (maximal score: 6 per mouse over 3 readings) and the total score of the control group (vehicle intraperitoneally-apomorphine subcutaneously) is set to 100%. ED₅₀ values with 95% confidence limits, calculated by a linear regression analysis, of representative compounds of the present invention as well as a standard antipsychotic agent are presented in Table 1.

For assay [2], the target named is T1, serotonin (5-hydroxytryptamine [5HT]) uptake (Rattus norvegicus, UniProt P31652).
T1 construct: Either whole brain minus cerebella or hypothalmus is weighed and homogenized in 9 volumes of ice-cold 0.32 M sucrose; from tissue; host or cells: Male Wistar rat brain (whole brain minus cerebella, or hypothalamus), S1 supernatant / synaptosomes
T1 sequence (P31652 whole entry): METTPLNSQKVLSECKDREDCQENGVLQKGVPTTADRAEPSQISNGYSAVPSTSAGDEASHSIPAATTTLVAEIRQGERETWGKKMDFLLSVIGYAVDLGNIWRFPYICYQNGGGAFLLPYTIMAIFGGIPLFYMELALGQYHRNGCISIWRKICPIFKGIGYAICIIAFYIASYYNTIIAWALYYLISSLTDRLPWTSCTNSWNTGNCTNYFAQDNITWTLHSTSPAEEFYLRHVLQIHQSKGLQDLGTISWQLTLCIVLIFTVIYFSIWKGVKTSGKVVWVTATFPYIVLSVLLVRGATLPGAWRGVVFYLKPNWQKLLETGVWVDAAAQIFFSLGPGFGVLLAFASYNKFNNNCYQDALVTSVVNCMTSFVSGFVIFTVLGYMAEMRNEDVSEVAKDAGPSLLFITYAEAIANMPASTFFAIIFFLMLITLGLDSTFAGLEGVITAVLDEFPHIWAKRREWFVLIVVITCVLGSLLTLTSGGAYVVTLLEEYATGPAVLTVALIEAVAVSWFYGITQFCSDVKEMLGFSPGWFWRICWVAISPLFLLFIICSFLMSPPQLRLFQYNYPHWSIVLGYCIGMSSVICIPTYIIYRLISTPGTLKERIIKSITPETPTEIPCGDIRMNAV
Kind of assay: ³H-serotonin uptake in rat whole brain and hypothalamic synaptosomes. The settings on record: inhibition of [³H]-5HT uptake, 50 nM ³H-5HT, rat whole brain minus cerebella or hypothalamus, 37°C for 5 minutes; log-probit analysis; read-out: 5-HT-IC₅₀. The assay is classed as biochemical. As for the experimental part:
This activity is determined in an assay which measures ³H-serotonin uptake in rat whole brain and hypothalamic synaptosomes. The assay described below is used as a biochemical screen for potential antidepressants which block serotonin (5-hydroxytryptamine [5HT]) uptake.
1. Krebs-Henseleit Bicarbonate Buffer, pH 7.4 (KHBB): Prepare a 1 liter batch containing the following salts.
The batch is aerated for 60 minutes with 95% 0₂/5% CO₂, the pH is checked to insure it is at 7.4 ± 0.1. 2. Add 0.32 M sucrose: 21.9 g of sucrose, q.s. to 200 ml. 3. A 0.1mM stock solution of serotonin creatinine SO₄ is made up in 0.01 N HCl. This is used to dilute the specific activity of the radiolabeled 5HT. 4. 5-[1,2-³H(N)]-Hydroxytryptamine creatinine sulfate (serotonin) specific activity 20-30 Ci/mmol is used. The final desired concentration of ³H-5HT in the assay is 50 nM. The dilution factor is 0.8. The KHBB is made up to contain 62.5 nM of [³H]-5HT. Add to 100 ml of KHBB.
5. For most assays, a 1mM stock solution of the test compound is made up in a suitable solvent and serially diluted such that the final concentration in the assay ranges from 2 X 10⁻⁸ to 2 X 10⁻⁵M. Seven concentrations are used for each assay.
Male Wistar rats are decapitated and the brain rapidly removed. Either whole brain minus cerebella or hypothalmus is weighed and homogenized in 9 volumes of ice-cold 0.32 M sucrose using a Potter-Elvejhem homogenizer. The homogenate is centrifuged at 1000 g for 10 minutes at 0-4°C. The supernatant (S₁) is decanted and is used for uptake determination.
800 µl KHBB + [³H]-5HT 20 µl Vehicle or appropriate drug 200 µl Tissue suspension concentration
Tubes are incubated at 37°C under a 95%O₂/5% CO₂ atmosphere for 5 minutes. For each assay, 3 tubes are incubated with 20 µl of vehicle at 0°C in an ice bath. After incubation all tubes are immediately centrifuged at 4000 g for 10 minutes. The supernatant fluid is aspirated and the pellets dissolved by adding 1 ml of solubilizer (Triton X-100 and 50% ethanol, 1:4 v/v). The tubes are vigorously vortexted, decanted into scintillation vials, and counted in 10 ml of Liquiscint scintillation counting cocktail. Active uptake is the difference between cpm at 37°C and 0°C. The per cent inhibition at each drug concentration is the mean of three determinations. IC₅₀ values are derived from log-probit analysis.

Counter-ions that a name gives are not always drawn. Like-named read-outs stand apart in the source and are kept apart here.

For the compound `CN1CCN(C2=Nc3cc(Cl)ccc3Nc3ccccc32)CC1` [Clozapine, reference compound], the ED50 in assay [1] (apomorphine 1.5 mg/kg subcutaneously, climbing score vs control group set to 100%, linear regression analysis) was 8.1 mg/kg.

In the case of `COc1cc(C(C)=O)ccc1OCCN1C2CCC1CC(c1noc3ccccc13)C2` (stereo not shown) [[4-[2-[3-[1,2-Benzisoxazol-3-yl]-8-azabicyclo[3.2.1]octan-8-yl]ethoxy]-3-methoxyphenyl]ethanone fumarate], the IC50 in assay [2] was 10 nM.

For the compound `COc1cc(C(C)=O)ccc1OCCN1C2CCC1CC(c1noc3cc(F)ccc13)C2` (stereo not shown) [[4-[2-[3-[6-Fluoro-1,2-benzisoxazol-3-yl]-8-azabicyclo[3.2.1]octan-8-yl]ethoxy]-3-methoxyphenyl]ethanone fumarate], the ED50 in assay [1] turned out to be 12.5 mg/kg.

As to `COc1cc(C(C)=O)ccc1OCCCN1C2CCC1CC(c1noc3cc(F)ccc13)C2` (stereo not shown) [[4-[3-[3-[6-Fluoro-1,2-benzisoxazol-3-yl]-8-azabicyclo[3.2.1]octan-8-yl]propoxy]-3-methoxyphenyl] ethanone monohydrochloride], the ED50 in assay [1] came out at 5 mg/kg.

`COc1cc(C(C)=O)ccc1OCCCCN1C2CCC1CC(c1nsc3ccccc13)C2` (stereo not shown) [[4-[4-[3-[1,2-Benzisothiazol-3-yl]-8-azabicyclo[3.2.1]octan-8-yl]butoxy]-3-methoxyphenyl]ethanone monohydrochloride]: the IC50 in assay [2] turned out to be 27 nM.

For `COc1cc(C(C)=O)ccc1OCCCCN1C2CCC1CC(c1n[nH]c3ccccc13)C2` (stereo not shown) [[4-[4-[3-[1H-Indazol-3-yl]-8-azabicyclo[3.2.1]octan-8-yl]butoxy]-3-methoxyphenyl]ethanone fumarate hemihydrate], in assay [2], the IC50 worked out at 70 nM.

`COc1cc(C(C)=O)ccc1OCCCCN1C2CCC1CC(c1n[nH]c3cc(F)ccc13)C2` (stereo not shown) [[4-[4-[3-[6-Fluoro-1H-indazol-3-yl]-8-azabicyclo[3.2.1]-octan-8-yl]butoxy]-3-methoxyphenyl]ethanone]: the IC50 in assay [2] stood at 20 nM.

Values taken from patent EP0498331B1, “N-(aryloxyalkyl)heteroaryl-8-azabicyclo(3.2.1)octanes, intermediates and a process for the preparation thereof and their use as medicaments” (HOECHST-ROUSSEL PHARMACEUTICALS INCORPORATED, priority 1991, dated 1992).
